Test results from patent EP0172962A1, “Prostaglandins” (ONO PHARMACEUTICAL CO., LTD., priority 1984, dated 1986).
Converted amounts (≈) assume the structure as drawn.

Tests used:
Acute toxicity = conditions: in vivo, iv; intravenously
ICR male mice = assay: Test on increase of white blood cell (hematological test); format: in vivo; conditions: 3 mg/kg i.p. once a day for 14 days, blood collected on the day following the final administration
Protocol: The experimental methods and results are described below. A solution of a compound of the present invention in ethanol was diluted with l% Tween 80 (registered Trade Mark) and the solution was intraperitoneally administered to ICR male mice of 6-7 weeks old once a day for 14 days. On the day following the final administration, the blood was collected by cardiac puncture with Anglot® (containing heparin and EDTA) as an anticoagulant. The blood was diluted with Seruento (registered Trade Mark), and the numbers of white blood cells and red blood cells were counted by a Micro Cell Counter (model CC-120).

[1] = test system: cells originated from human mouth tumour (KB-cells); assay: Test on inhibition of proliferation using cells originated from human mouth tumour (KB-cells); format: cell-based; conditions: 96 h, stationary culture at 37°C for 4 days, Trypan Blue staining, surviving cell number relative to control
Protocol: The experimental methods and the results are described below. Test on Inhibition of Proliferation Using Cells Originated
. The cells originated from human mouth tumour (KB-cells) were added to Eagle's MEM culture solution containing 10% bovine fetal serum, the number of cells in the culture solution was adjusted to 1 ×10^5 cells/ml, a solution in ethanol of compounds of the present invention was added to give a concentration of 5 µg/ml or below and the mixture was subjected to stationary culture at 37°C for 4 days. As a control, a culture solution containing 0.1% of ethanol was similarly cultured. After the culture, the cells were stained by the Trypan Blue staining method, and the surviving cell number was measured to determine the IC50 value from the degree of inhibition relative to the control.

| SMILES | IC50 [1] [µg/mL] | also measured |
| --- | --- | --- |
| CCCCC[C@H](O)/C=C/[C@H]1C(=O)C=C[C@@H]1C/C=C\CCCC(=O)NCCCNC(=O)CCC/C=C\C[C@H]1C=CC(=O)[C@@H]1/C=C/[C@@H](O)CCCCC [Example 1(e), N,N'-bis[(5Z,13E)-(15S)-11-oxo-15-hydroxy-prosta-5,9,13-trienoyl]trimethylenediamine] | – | LD50 (Acute toxicity): > 100 mg/kg; RBC (x10^4/mm^3) (ICR male mice; red blood cells): 793 ± 22.5 (p <0.001) x10^4/mm^3; WBC (x10^2/mm^3) (ICR male mice; white blood cells): 158 ± 17.0 (p <0.05) x10^2/mm^3 |
| CCCCC[C@H](O)/C=C/[C@H]1C(=O)C=C[C@@H]1C/C=C\CCCC(=O)NCCCCNC(=O)CCC/C=C\C[C@H]1C=CC(=O)[C@@H]1/C=C/[C@@H](O)CCCCC [Example 1(f)] | 1.17 (≈ 1.62 µM) | – |
| CCCCC[C@H](O)/C=C/[C@H]1C(=O)C=C[C@@H]1C/C=C\CCCC(=O)NCCOC(=O)CCC/C=C\C[C@H]1C=CC(=O)[C@@H]1/C=C/[C@@H](O)CCCCC [Example 1(g)] | 1.8 (≈ 2.59 µM) | – |
| CCCCC[C@H](O)/C=C/[C@H]1C(=O)C=C[C@@H]1C/C=C\CCCC(=O)OCCOC(=O)CCC/C=C\C[C@H]1C=CC(=O)[C@@H]1/C=C/[C@@H](O)CCCCC [Example 1(h)] | < 1 | – |
| CCCCC[C@H](O)/C=C/[C@H]1C(=O)C=C[C@@H]1C/C=C\CCCC(=O)NCCNC(=O)CCC/C=C\C[C@H]1C=CC(=O)[C@@H]1/C=C/[C@@H](O)CCCCC [Example 1] | 0.87 (≈ 1.26 µM) | – |
| CCCCC[C@H](O)/C=C/[C@H]1C(=O)C[C@H](O)[C@@H]1C/C=C\CCCC(=O)NCCCNC(=O)CCC/C=C\C[C@H]1[C@@H](O)CC(=O)[C@@H]1/C=C/[C@@H](O)CCCCC [Example 3(a)] | 1.9 (≈ 2.56 µM) | – |
| CCCCCC=CC=C1C(=O)C=CC1CC=CCCCC(=O)NCCNC(=O)CCCC=CCC1C=CC(=O)C1=CC=CCCCCC (stereo not drawn) [Example 4] | 0.47 (≈ 0.715 µM) | – |
